Test results from patent US11471451B2, “Uses of crenolanib” (Arog Pharmaceuticals, Inc., priority 2019, dated 2022).

Experiments:
Format in all cases: in vivo, human
FLT3 mutated AML = assay: Example 1: newly diagnosed AML patient with activating FLT3 mutations; crenolanib besylate with induction and consolidation chemotherapy, then single agent maintenance; bone marrow biopsy
Experimental: A person was diagnosed with AML with monocytic differentiation in 2016. […] To treat this patient's disease and overcome the FLT3 mutations, this patient was provided oral crenolanib besylate in combination with standard chemotherapy on a clinical trial for newly diagnosed AML patients with activating FLT3 mutations. The patient was treated with induction chemotherapy, comprised of seven days of cytarabine and three days of daunorubicin, followed by 100 mg of crenolanib besylate three times daily starting on day 10 of treatment.
In an effort to maintain remission, the patient was then administered four cycles of high dose cytarabine consolidation chemotherapy. In each cycle, the patient received cytarabine chemotherapy at standard doses, followed by oral crenolanib besylate at 100 mg three times daily starting 48 hours after the last dose of chemotherapy and continuing until 72 hours before the start of the next cycle of chemotherapy. […] Due to the aggressive nature of FLT3 mutated AML, the patient continued to receive single agent crenolanib besylate therapy at 100 mg three times daily for 12 months, known as maintenance.

[1] = system: FLT3 Variants, FLT3 Activating Mutations, and Co-Occurring Mutations; assay: Example 1: single cell DNA sequencing (TAPESTRI) of longitudinal bone marrow samples; conditions: for Variant allele frequency FLT3 D835E: D1 0%; for Variant allele frequency DNMT3A R882H / Variant allele frequency FLT3 D839G / Variant allele frequency KRAS G12D / Variant allele frequency NRAS G13V: D1 1%; for Variant allele frequency FLT3 N841K: D1 18%; for Variant allele frequency FLT3 A680V: D1 20%; for Variant allele frequency FLT3 ITD: D1 22%; for Variant allele frequency DNMT3A R882C: D1 41%; for Variant allele frequency NPM1 dupTCTG: D1 44%
Experimental: In one aspect of the invention pertains to single cell sequencing analysis of recurrent AML genetic mutations that is performed using the […]™ platform. To use said platform, a cell suspension is introduced onto the platform using microfluidics, and each cell is then encapsulated in an oil droplet along with a protease to aid in DNA isolation. Cells are then lysed and loaded back onto the […]™ platform, where each single nucleus is encapsulated with a unique DNA based barcode linked to acrylamide-based beads and PCR master mix and primer sets against recurrent AML mutant genes in an oil droplet. These droplets are directly deposited in PCR tubes and exposed to UV light to release the barcodes. Subsequently the barcoded genomic DNA within the droplets can be amplified according to standard PCR amplification techniques. In this same aspect the PCR products are then isolated using standard molecular biology techniques and then libraries prepared for next-generation sequencing compatible with Illumina platforms (including MiSeq, HiSeq, and NovaSeq), followed by sequencing said libraries on one of the validated Illumina platforms (including MiSeq, HiSeq, and NovaSeq). In the same aspect, the sequencing contains at least 1,000,000 reads per sample, and the allele dropout out rate is at most 10%. Next-generation sequencing data can be analyzed at least one of but not limited to using […] Pipeline to generate genetic variant calls followed by […] Insight for final analysis including determining co-occurring genetic mutations, or standard next generation sequencing (NGS) analysis methods known to one skilled in the art.
The present invention includes the follow method of preparing single cell DNA sequencing. One example is a single-cell multi-omic assay for detecting single nucleotide variants, copy number variants, and protein changes simultaneously from the same cell, such as […]™. Mononuclear cells were isolated from bone marrow samples via FICOLL-PAQUE® gradient, resuspended in a 10% DMSO solution and frozen at −20° C. until needed. Single cell suspensions were prepared from thawed mononuclear cell samples to final concentrations indicated by the manufacturer's instructions, then loaded onto the […]™ instrument. According to the manufacturer, the […]™ platform uses microfluidics to separate single cells, encapsulate each cell within a […] droplet, proteases are added to each droplet to aid in DNA isolation. Cell encapsulation, targeted PCR, and next generation library preparation were performed per the […]™ platform's manufacturer's instructions using the […]™ platform and the Thermo Fisher SimpliAmp thermal cycler (cat #A24811, or equivalent). The prepared single-cell DNA library was sequenced using Illumina's MiSeq instrument, per the manufacturer's instructions. Analysis of these next-generation sequencing data was performed by first processing the sequencing data using the […] Pipeline (available on the Mission Bio website) to ultimately generate variant calls. The resultant loom files are then imported into the […]™ bioinformatics software, Insight, which is used to identify relevant variants, including co-occurring and rare mutations.
Longitudinal bone marrow samples obtained throughout the course of treatment were analyzed using single cell sequencing. […]

[2] = system: t(9; 11)+AML with FLT3-A848P mutation; assay: Example 8: pediatric relapsed t(9; 11)+AML patient; crenolanib besylate after liposomal chemotherapy and gemtuzumab ozogamicin
[3] = Consolidation (D237), HiDAC + crenolanib
[4] = Induction (D53), induction chemotherapy + crenolanib
[5] = Maintenance (D294), single agent crenolanib besylate
[6] = Maintenance (D406), completion of single agent maintenance

CC1(COc2ccc3c(c2)ncn3-c2ccc3cccc(N4CCC(N)CC4)c3n2)COC1 [crenolanib, 4-Piperidinamine, 1-[2-[5-[(3-methyl-3-oxetanyl)methoxy]-1H-benzimidazol-1-yl]-8-quinolinyl]] was tested, and the response (FLT3 mutated AML; day 35, after induction chemotherapy with crenolanib) was “morphologic complete remission”, the remission status (FLT3 mutated AML; day 237, after four cycles of high dose cytarabine consolidation with crenolanib besylate 100 mg three times daily) was “remained in morphologic remission” and the remission status (FLT3 mutated AML; day 406, completion of single agent crenolanib besylate maintenance, 100 mg three times daily) was “remained in morphologic remission”. For the same molecule, the bone marrow blasts (FLT3 mutated AML; person, 63% at presentation, day 35, cytarabine 7 days + daunorubicin 3 days, then 100 mg crenolanib besylate three times daily from day 10) was “less than 5%”, the “Variant allele frequency FLT3 D835E” value [1, 3] was 0% and the “Variant allele frequency DNMT3A R882H” value [1, 3] was 1%. The “Variant allele frequency FLT3 D839G” value [1, 3] was 1%, the “Variant allele frequency KRAS G12D” value [1, 3] was 1% and the “Variant allele frequency NRAS G13V” value [1, 3] was 0%. The “Variant allele frequency FLT3 N841K” value [1, 3] was 0%, the “Variant allele frequency FLT3 A680V” value [1, 3] was 1% and the “Variant allele frequency FLT3 ITD” value [1, 3] was 0%. For the same molecule, the “Variant allele frequency DNMT3A R882C” value [1, 3] was 5%, the “Variant allele frequency NPM1 dupTCTG” value [1, 3] was 0% and the “Variant allele frequency FLT3 D835E” value [1, 4] was 1%. The “Variant allele frequency DNMT3A R882H” value [1, 4] was 3%, the “Variant allele frequency FLT3 D839G” value [1, 4] was 3% and the “Variant allele frequency KRAS G12D” value [1, 4] was 0%. For the same molecule, the “Variant allele frequency NRAS G13V” value [1, 4] was 0%, the “Variant allele frequency FLT3 N841K” value [1, 4] was 0% and the “Variant allele frequency FLT3 A680V” value [1, 4] was 0%. For the same molecule, the “Variant allele frequency FLT3 ITD” value [1, 4] was 3%, the “Variant allele frequency DNMT3A R882C” value [1, 4] was 0% and the “Variant allele frequency NPM1 dupTCTG” value [1, 4] was 4%. The “Variant allele frequency FLT3 D835E” value [1, 5] was 0%, the “Variant allele frequency DNMT3A R882H” value [1, 5] was 0% and the “Variant allele frequency FLT3 D839G” value [1, 5] was 0%. For the same molecule, the “Variant allele frequency KRAS G12D” value [1, 5] was 0%, the “Variant allele frequency NRAS G13V” value [1, 5] was 0% and the “Variant allele frequency FLT3 N841K” value [1, 5] was 0%. For the same molecule, the “Variant allele frequency FLT3 A680V” value [1, 5] was 0%, the “Variant allele frequency FLT3 ITD” value [1, 5] was 0% and the “Variant allele frequency DNMT3A R882C” value [1, 5] was 6%. The “Variant allele frequency NPM1 dupTCTG” value [1, 5] was 0%, the “Variant allele frequency FLT3 D835E” value [1, 6] was 0% and the “Variant allele frequency DNMT3A R882H” value [1, 6] was 0%. For the same molecule, the “Variant allele frequency FLT3 D839G” value [1, 6] was 0%, the “Variant allele frequency KRAS G12D” value [1, 6] was 0% and the “Variant allele frequency NRAS G13V” value [1, 6] was 0%. For the same molecule, the “Variant allele frequency FLT3 N841K” value [1, 6] was 0%, the “Variant allele frequency FLT3 A680V” value [1, 6] was 0% and the “Variant allele frequency FLT3 ITD” value [1, 6] was 0%. For the same molecule, the “Variant allele frequency DNMT3A R882C” value [1, 6] was 8%, the “Variant allele frequency NPM1 dupTCTG” value [1, 6] was 0% and the “remaining FLT3 and KRAS mutations” value ([1]; after approximately two months of single agent maintenance therapy) was “cleared”. For the same molecule, the “remaining FLT3 and KRAS mutations” value ([1]; at the completion of maintenance therapy) was “remained absent”, the “all variant FLT3 clones” value ([1]; by day 79 into maintenance) was “cleared” and the “mutant containing cancer cell populations (FIGS. 2-4 scatter plots)” value ([1]; diagnosis versus 35 days following the start of induction) was “eliminated the vast majority”. The “NPM1 and FLT3-ITD” value ([1]; following consolidation) was “clearance”, the “variant FLT3 and FLT3 activating mutations (FIG. 1)” value ([1]; induction chemotherapy with crenolanib, HiDAC consolidation with crenolanib, single agent crenolanib maintenance) was “eliminated” and the remission status ([2]; more than 100 days post-transplant, crenolanib until one week prior to allogeneic stem cell transplant) was “still in remission”. For the same molecule, the response ([2]; one month after starting 66.7 mg/m^2 crenolanib besylate orally, begun five days after VYXEOS and gemtuzumab ozogamicin) was “complete morphologic remission without count recovery”.
